≈ marks a conversion by molar mass, not a printed value. Where two headings read alike, the source gives them in different places.
Experiments:
[1] = test system: primary mesencephalic dopaminergic cell culture derived from embryonic mice; details: cited from earlier work
caspase-3 = test system: caspase-3; design: method as in PMID 17913302; details: primary mesencephalic dopaminergic cell culture from embryonic mice; cited from earlier work
[2] = test system: FAS, Gadd45a, Hspb1; Cxcl9, Irf1, Fasl, Icam1, Tnf, Vcam1; design: method as in PMID 17913302; details: cited from earlier work
rats [3] = test system: rats; design: method as in PMID 22380576; details: compared with controls; cited from earlier work
α-synuclein = test system: α-synuclein; design: method as in PMID 20374418; details: primary dopaminergic cell cultures; cited from earlier work
[4] = test system: Artn, Bdnf, Egln1, Tgfb2, and Ncam1; design: method as in PMID 32285253; details: cited from earlier work
male Sprague Dawley rats [5] = type: in vivo; details: stage 1; rats that received the lowest amounts of H and NH
male Sprague Dawley rats [6] = test: Battery of behavioral tests, stage 1; type: in vivo; details: individual chemical standards added to the diet
Description: The experiment was conducted in the animal housing facility at the Institute of Human Nutrition and Dietetics, Poznań University of Life Sciences, under conditions of natural light and with the temperature maintained during the experiment at 19–22 °C, and with a relative humidity of 55–60%. Seventeen-month-old male Sprague Dawley rats originating from a Charles River Laboratories farm were used in the experiment. The age of the rats corresponded to 51 years of human life. For the first ten days of the experiment (the adaptation period), the rats were fed ad libitum with a standard laboratory diet and water. The experiment was conducted in two stages. […] The food consumption of the individual rats was monitored daily by measuring the difference between the amount of diet supplied each day and the amount of diet remaining. Feces were collected for ten days in the seventh week of the experiment, and water content, protein, fat, dietary fiber, and ash were determined using standard analytical methods. Body mass was measured every seven days using an electronic balance. […]
A classic labyrinth (110 × 65 cm) was used, with corridors about […], located on the table raised 50 cm from the ground. […] The time needed to complete the route between the two points of departure and arrival was measured. […]

MRC-5 cells [7] = test: Real-time cell proliferation analysis by xCELLigence system, MRC-5; type: cell-based, human; details: for IC50: Homo sapiens, MRC5; for cell proliferation rate compared to the control: 24 h after administration, 1–25 µM; for cytotoxic effect on the MRC-5 cell line: low concentration range (1–25 µM)
Description: (§1) Normal human lung fibroblasts (MRC-5) were purchased from ECACC, and human skin fibroblasts isolated from a person with Parkinson’s disease (AG20445) were purchased from the Coriell Institute. The cells were cultured in Eagle’s Minimum Essential Medium (EMEM, Corning) supplemented with antibiotics (Penicillin-Streptomycin Solution (ATCC) and 10% or 15% FBS (Sigma-Aldrich), respectively. Both cell lines were cultured at 37 °C, with the addition of 5% CO2 to the atmosphere.
(§2) Cell proliferation analysis was performed using an xCELLigence system (Roche). The cells were seeded in sixteen-well E-plates (Roche) at a density of 7.5 × 10^3 per well. After 24 h, the cells were treated with H, NH, and both in final concentrations of 1, 5, 10, 25, 50, and 100 μM. The control cells were cultured in the supplemented medium only. The real-time proliferation of the cells was estimated based on impedance measurement, expressed as a Cell Index (CI) value. The CI was monitored at 30 min intervals from the time of plating for six days.

AG20445 (PD cells) = test: Real-time cell proliferation analysis by xCELLigence system, AG20445; type: cell-based, human; details: 24 h after treatment, range of 1–50 µM
Description: as §1, §2

MRC-5 cells [8] = test: Apoptosis/necrosis assay (Casp 3/7-FITC/7-AAD flow cytometry), MRC-5; type: cell-based, human; details: 24 h, 5, 10, and 25 µM (Figure 2c)
Description: as §1
(§3) The apoptosis/necrosis assay was performed by double staining with CellEvent Caspase 3/7-FITC (Thermo Fisher Scientific) and 7-aminoactinomycin D (BD Pharmigen) fluorescent dyes. Briefly, the cells (4 × 10^5) were seeded onto six-well plates and incubated until 70–80% confluency. On the next day, the cells were treated with β-carbolines in a final concentration of 5, 10, and 25 µM. Afterward, the cells were detached with trypsin (Thermo Fisher Scientific), washed twice with Dulbecco’s Phosphate Buffered Saline (Thermo Fisher Scientific), and stained with fluorescent dyes for 30 min at 37 °C in the dark, in line with the manufacturer’s protocol. Cells were analyzed immediately with 488 nm excitation using an Accuri C6 flow cytometer (Becton Dickinson).

AG20445 cells = test: Apoptosis/necrosis assay (Casp 3/7-FITC/7-AAD flow cytometry), AG20445; type: cell-based, human; details: 24 h, 5, 10, and 25 µM (Figure S2b)
Description: as §1, §3

[9] = for share of the carboline taken in that was found in the blood: from average body mass, feed consumption and concentration in the feed; for increase of the carboline level in plasma versus control diet / Harman (ng/mL) in animal blood: stage I; for increase of the carboline level in plasma versus control diet: at the greatest addition to the diet; for Harman (ng/mL) in animal blood: fourteen weeks, n = 6
rats [10] = test system: rats; design: method as in PMID 23107644; details: the two higher doses (5.0 mg/kg and 7.5 mg/kg); cited from earlier work
mice = test system: mice; design: method as in PMID 16183262; details: H 5–15 mg/kg i.p., NH 2.5–10 mg/kg i.p.; cited from earlier work
monoamine oxidase = test system: monoamine oxidase; design: method as in PMID 8957221; details: cited from earlier work
KB = test system: KB; design: method as in PMID 10612592; details: cited from earlier work
A549 = test system: A549; design: method as in PMID 10612592; details: cited from earlier work
CAKI-1 = test system: CAKI-1; design: method as in PMID 10612592; details: cited from earlier work
MCF-7 = test system: MCF-7; design: method as in PMID 10612592; details: cited from earlier work
IA9 = test system: IA9; design: method as in PMID 10612592; details: cited from earlier work
SK-MEL-2 = test system: SK-MEL-2; design: method as in PMID 10612592; details: cited from earlier work
U-87-MG = test system: U-87-MG; design: method as in PMID 10612592; details: cited from earlier work
HEL = test system: HEL; design: method as in PMID 10612592; details: cited from earlier work
[11] = test system: yeast and mammalian cells; design: method as in PMID 17545209; details: cited from earlier work
[12] = in 100g, stage I
[13] = corresponds to ~50 µM, read-out: concentration giving 50% decrease in MRC-5 cell viability, converted
[14] = xCELLigence, read-out: concentration giving 50% decrease in MRC-5 cell viability

In the case of `Cn1c2ccccc2c2cc[n+](C)cc21` [2,9-dimethyl-BC], the ATP content [1] is given as “decreased”, the free radical production [1] is given as “increased” and the mitochondrial membrane potential [1] is given as “decreased”. The respiratory activity [1] was “decreased” and the “toxic effects on dopaminergic neurons and other cell constituents” value ([1]; primary dopaminergic culture) was “highly toxic effects”.
For `Cn1c2ccccc2c2ccncc21` [9-me-BC, 9-methyl-β-carboline], the “number of dopaminergic neurons” value ([1]; concentration-dependent manner) is given as “capable of increasing the number of dopaminergic neurons”, the “number of necrotic cells” value ([1]; primary mesencephalic dopaminergic cell culture from embryonic mice) is given as “reduced the number of necrotic cells” and the caspase-3 activity (caspase-3) is given as “decrease of caspase-3 activity”. The “expression of inflammation-related genes like Cxcl9, Irf1, Fasl, Icam1, Tnf, and Vcam1” value [2] was “reduced”, the “expression of proteins in apoptosis-relevant pathways like FAS, Gadd45a, and Hspb1” value [2] was “downregulated” and the “acquisition in a hippocampus-dependent task” value (rats [3]) was “significantly accelerated acquisition”. For the same compound, the “content of α-synuclein” value (α-synuclein) was “lowered” and the “gene expression of neurotrophic factors like Artn, Bdnf, Egln1, Tgfb2, and Ncam1” value [4] was “stimulated”.
For `Cc1nccc2c1[nH]c1ccccc12` [H, harman], the “Porsolt test: mobility” value (male Sprague Dawley rats [5]) was “more mobile than the control animals”, the “effect on the animals' behavior” value (male Sprague Dawley rats [6]) was “did not produce a very marked effect” and the IC50 (MRC-5 cells [7]; [13]) was 9.11 mg/L. The IC50 (MRC-5 cells [7]; [14]) was roughly 50 µM, the “cell proliferation rate compared to the control” value (MRC-5 cells [7]; MRC-5) was “significant increase in the cell proliferation rate” and the “cytotoxic effect on the MRC-5 cell line” value (MRC-5 cells [7]) was “neither H nor NH showed any cytotoxic effect”. The “CI values (proliferation)” value (AG20445 (PD cells)) was “significant increase in CI values”, the induction of apoptosis (MRC-5 cells [8]) was “do not induce apoptosis” and the induction of apoptosis (AG20445 cells) was “do not induce apoptosis”. The “share of the carboline taken in that was found in the blood” value [9] was “about 0.15%”, the “increase of the carboline level in plasma versus control diet” value [9] was “increased by a factor of about four” and the “Harman (ng/mL) in animal blood” value ([9]; group H1 = 10 µg H/kg of exp. diet) was 0.038 ng/mL. The “Harman (ng/mL) in animal blood” value ([9]; group H2 = 15 µg H/kg of exp. diet) was 0.052 ng/mL, the “Harman (ng/mL) in animal blood” value ([9]; group H3 = 20 µg H/kg of exp. diet) was 0.084 ng/mL and the “errors in working memory” value (rats [10]) was “significantly fewer errors in working memory”. For the same compound, the “antidepressant action on mice” value (mice) was “positive effects”, the monoamine oxidase inhibition (monoamine oxidase) was “potent monoamine oxidase inhibitor” and the ED50 (KB) was 8.9 mg/L (≈ 48.8 µM). For the same compound, the ED50 (A549) was 9.3 mg/L (≈ 51 µM), the ED50 (CAKI-1) was 8.0 mg/L (≈ 43.9 µM) and the ED50 (MCF-7) was 19.0 mg/L (≈ 104 µM). For the same compound, the ED50 (IA9) was 6.1 mg/L (≈ 33.5 µM), the ED50 (SK-MEL-2) was greater than 20 mg/L and the ED50 (U-87-MG) was 19.0 mg/L (≈ 104 µM). For the same compound, the ED50 (HEL) was 9.8 mg/L (≈ 53.8 µM) and the “protective effect against H2O2 and paraquat oxidative agents” value [11] was “significant protective effect”.
For `c1ccc2c(c1)[nH]c1cnccc12` [NH, norharman], the “Porsolt test: mobility” value (male Sprague Dawley rats [5]) was “more mobile than the control animals”, the “effect on the animals' behavior” value (male Sprague Dawley rats [6]) was “did not produce a very marked effect” and the IC50 (MRC-5 cells [7]; [13]) was 8.41 mg/L. For the same compound, the IC50 (MRC-5 cells [7]; [14]) was roughly 50 µM, the “cell proliferation rate compared to the control” value (MRC-5 cells [7]; MRC-5) was “significant increase in the cell proliferation rate” and the “proliferation rate (ranking)” value (MRC-5 cells [7]; MRC-5, final concentrations of 1, 5, and 10 μM) was “greatest proliferation rate”. The “cytotoxic effect on the MRC-5 cell line” value (MRC-5 cells [7]) was “neither H nor NH showed any cytotoxic effect”, the “CI values (proliferation)” value (AG20445 (PD cells)) was “significant increase in CI values” and the induction of apoptosis (MRC-5 cells [8]) was “do not induce apoptosis”. For the same compound, the induction of apoptosis (AG20445 cells) was “do not induce apoptosis”, the “share of the carboline taken in that was found in the blood” value [9] was “about 0.5%” and the “increase of the carboline level in plasma versus control diet” value [9] was “increased two-fold”. For the same compound, the “IDF [g] (insoluble dietary fiber) in feces” value (“IDF [g]” below) ([12]; group NH1 (8 µg NH/kg diet)) was 55,36 g, the “SDF [g] (soluble dietary fiber) in feces” value ([12]; group NH1 (8 µg NH/kg diet)) was 0,04 g and the “IDF [g]” value ([12]; group NH2 (12 µg NH/kg diet)) was 54,46 g. The “SDF [g] (soluble dietary fiber) in feces” value ([12]; group NH2 (12 µg NH/kg diet)) was 0,06 g, the “IDF [g]” value ([12]; group NH3 (16 µg NH/kg diet)) was 53,97 g and the “SDF [g] (soluble dietary fiber) in feces” value ([12]; group NH3 (16 µg NH/kg diet)) was 0,07 g. The “antidepressant action on mice” value (mice) was “positive effects”.
